# What was measured:
# HepG2 cells = assay: LDH release assay (unspecific cytotoxicity); format: cell-based, human; conditions: HepG2, 0.5 and 10 µM, 12 or 24 h
# Description: Unspecific cytotoxicity induced by treatment with 0.5 µM and 10 µM of 1a, 1b, 1c and sorafenib (LC Laboratories, Woburn, MA, USA) was determined by measuring the release of lactate dehydrogenase (LDH) from HepG2 cells into the supernatant after 12 and 24 h (Cytotoxicity Detection KitPLUS LDH, Roche Diagnostics GmbH, Mannheim, Germany). The supernatant of treated samples was collected, and adherent non-treated cells were lysed with 2% Triton X-100 for 10 min to determine the maximum LDH release. All samples were mixed with catalyst and dye solution for 30 min, resulting in the formation of formazan dye proportional to LDH enzyme activity. The absorbance was measured at 490/630 nm using an ELISA reader (Dynex Technologies, Denkendorf, Germany) and cytotoxicity was determined by subtracting the percentage of LDH release under control conditions of those from treated samples. Experiments were performed in duplicate and data are given as mean percentage changes ± SD as compared to controls of n = 3 experiments.
# EGFR = target: T1, EGFR (Homo sapiens, UniProt P00533); assay: Enzymatic kinase assay (Eurofins KinaseProfiler); format: biochemical; conditions: 10 µM compound, cell-free
# T1 construct: purchased Eurofins KinaseProfiler service (Eurofins, France)
# T1 sequence (P00533 25-1210): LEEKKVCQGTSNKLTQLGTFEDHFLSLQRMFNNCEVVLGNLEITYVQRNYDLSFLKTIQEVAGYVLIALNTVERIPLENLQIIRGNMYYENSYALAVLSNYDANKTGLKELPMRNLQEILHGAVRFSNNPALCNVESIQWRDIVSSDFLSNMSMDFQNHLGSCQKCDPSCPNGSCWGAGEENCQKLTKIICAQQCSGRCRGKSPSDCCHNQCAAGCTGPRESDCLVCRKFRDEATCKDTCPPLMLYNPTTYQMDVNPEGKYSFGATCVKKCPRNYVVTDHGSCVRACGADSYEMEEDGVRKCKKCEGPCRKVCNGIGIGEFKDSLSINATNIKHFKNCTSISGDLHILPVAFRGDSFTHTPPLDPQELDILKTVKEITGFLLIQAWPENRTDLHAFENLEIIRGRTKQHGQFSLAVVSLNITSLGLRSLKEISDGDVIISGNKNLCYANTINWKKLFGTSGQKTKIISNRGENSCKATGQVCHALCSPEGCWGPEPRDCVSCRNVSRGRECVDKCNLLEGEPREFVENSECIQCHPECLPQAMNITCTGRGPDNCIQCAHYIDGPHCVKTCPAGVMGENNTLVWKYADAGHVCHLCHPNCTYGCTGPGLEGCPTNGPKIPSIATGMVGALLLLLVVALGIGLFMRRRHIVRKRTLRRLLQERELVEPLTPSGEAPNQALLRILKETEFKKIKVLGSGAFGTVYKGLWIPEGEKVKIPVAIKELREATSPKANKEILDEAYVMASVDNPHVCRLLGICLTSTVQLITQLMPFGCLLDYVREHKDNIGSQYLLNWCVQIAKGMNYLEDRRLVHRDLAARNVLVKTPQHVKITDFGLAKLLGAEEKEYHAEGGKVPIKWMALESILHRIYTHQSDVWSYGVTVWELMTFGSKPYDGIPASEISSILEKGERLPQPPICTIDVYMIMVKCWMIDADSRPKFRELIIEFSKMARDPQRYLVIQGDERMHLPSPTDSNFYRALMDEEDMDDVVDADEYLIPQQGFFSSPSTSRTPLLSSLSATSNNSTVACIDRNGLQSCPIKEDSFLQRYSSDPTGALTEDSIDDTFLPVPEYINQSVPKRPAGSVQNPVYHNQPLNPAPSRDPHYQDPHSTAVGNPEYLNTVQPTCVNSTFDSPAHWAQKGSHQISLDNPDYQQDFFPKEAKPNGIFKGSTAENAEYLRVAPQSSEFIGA
# Description: (§1) The kinase inhibiting potency of compound 1a, 1b and 1c (10 µM) was screened in a cell-free kinase assay, which consisted of a custom panel of 43 human protein kinases for 1c (listed in Figure 5A), as well as a subpanel of six kinases for 1a and 1b (Figure 5B). The initial panel was chosen to screen the lead compound 1c based on the union of two strategies. A total of 29 kinases were selected based on the correlated results of three in silico target prediction methods including structure- as well as ligand-based techniques and 20 kinases because of their relevance for HCC (note that six kinases were part of both strategies).
# (§2) The assay was performed by Eurofins KinaseProfilerTM service (Eurofins, France) and the determination of enzymatic activity was assessed as previously described. Additionally, an IC50 determination of compound 1c against the VEGFR-2 was performed with a concentration range of 0.003 to 30 µM.
# Pim-1 = target: T2, Pim-1 (Homo sapiens, UniProt P11309); assay: Enzymatic kinase assay (Eurofins KinaseProfiler); format: biochemical; conditions: 10 µM compound, cell-free
# T2 construct: purchased Eurofins KinaseProfiler service (Eurofins, France)
# T2 sequence (P11309 whole entry): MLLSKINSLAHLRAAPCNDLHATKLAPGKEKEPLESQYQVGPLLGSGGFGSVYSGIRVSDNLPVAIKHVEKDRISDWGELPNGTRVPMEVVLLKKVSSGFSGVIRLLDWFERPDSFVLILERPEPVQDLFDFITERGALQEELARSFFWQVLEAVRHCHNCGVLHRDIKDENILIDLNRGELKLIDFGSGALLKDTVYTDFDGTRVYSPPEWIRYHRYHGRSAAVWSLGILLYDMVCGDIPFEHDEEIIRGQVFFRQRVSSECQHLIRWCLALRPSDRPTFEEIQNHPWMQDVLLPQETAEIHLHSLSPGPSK
# Description: as §1, §2
# Pim-2 = target: T3, Pim-2 (Homo sapiens, UniProt Q9P1W9); assay: Enzymatic kinase assay (Eurofins KinaseProfiler); format: biochemical; conditions: 10 µM compound, cell-free
# T3 construct: purchased Eurofins KinaseProfiler service (Eurofins, France)
# T3 sequence (Q9P1W9 whole entry): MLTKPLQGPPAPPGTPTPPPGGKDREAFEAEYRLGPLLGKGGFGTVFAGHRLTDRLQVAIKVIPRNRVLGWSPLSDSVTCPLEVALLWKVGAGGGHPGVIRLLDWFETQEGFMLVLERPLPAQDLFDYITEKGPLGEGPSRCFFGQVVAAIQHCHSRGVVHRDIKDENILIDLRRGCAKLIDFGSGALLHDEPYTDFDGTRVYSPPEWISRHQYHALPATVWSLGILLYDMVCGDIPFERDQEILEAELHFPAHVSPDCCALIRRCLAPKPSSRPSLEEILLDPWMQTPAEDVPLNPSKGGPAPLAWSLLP
# Description: as §1, §2
# c-KIT = target: T4, c-KIT (Homo sapiens, UniProt P10721); assay: Enzymatic kinase assay (Eurofins KinaseProfiler); format: biochemical; conditions: 10 µM compound, cell-free
# T4 construct: purchased Eurofins KinaseProfiler service (Eurofins, France)
# T4 sequence (P10721 26-976): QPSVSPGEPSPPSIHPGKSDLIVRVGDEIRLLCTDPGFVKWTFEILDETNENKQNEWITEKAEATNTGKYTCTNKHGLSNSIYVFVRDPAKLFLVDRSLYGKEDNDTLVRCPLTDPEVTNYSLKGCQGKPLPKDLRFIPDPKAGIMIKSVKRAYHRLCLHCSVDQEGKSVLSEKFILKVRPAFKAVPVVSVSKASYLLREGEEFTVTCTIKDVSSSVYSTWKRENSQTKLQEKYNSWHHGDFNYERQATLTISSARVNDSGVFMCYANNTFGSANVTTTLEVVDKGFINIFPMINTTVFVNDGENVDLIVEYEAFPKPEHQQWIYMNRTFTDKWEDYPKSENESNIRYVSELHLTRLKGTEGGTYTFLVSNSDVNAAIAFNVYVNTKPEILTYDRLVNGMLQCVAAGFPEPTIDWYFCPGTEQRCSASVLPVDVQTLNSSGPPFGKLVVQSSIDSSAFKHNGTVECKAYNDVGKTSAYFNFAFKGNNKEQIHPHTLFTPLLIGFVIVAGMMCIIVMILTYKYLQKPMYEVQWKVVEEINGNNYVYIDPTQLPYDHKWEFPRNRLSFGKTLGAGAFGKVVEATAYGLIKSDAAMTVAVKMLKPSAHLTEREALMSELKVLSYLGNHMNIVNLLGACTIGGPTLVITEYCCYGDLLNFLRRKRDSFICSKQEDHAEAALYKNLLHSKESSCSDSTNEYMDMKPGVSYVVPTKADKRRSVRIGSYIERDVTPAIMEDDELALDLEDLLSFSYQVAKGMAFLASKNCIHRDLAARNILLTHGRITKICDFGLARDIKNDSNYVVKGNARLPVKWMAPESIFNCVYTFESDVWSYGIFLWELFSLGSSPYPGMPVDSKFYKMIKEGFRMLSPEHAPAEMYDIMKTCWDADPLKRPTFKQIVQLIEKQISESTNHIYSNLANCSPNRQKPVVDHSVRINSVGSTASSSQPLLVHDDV
# Description: as §1, §2
# FGFR = assay: Enzymatic kinase assay (Eurofins KinaseProfiler); format: biochemical, human; conditions: 10 µM compound, cell-free
# Description: as §1, §2
# PDGFR = assay: Enzymatic kinase assay (Eurofins KinaseProfiler); format: biochemical, human; conditions: 10 µM compound, cell-free
# Description: as §1, §2
smiles,measurement,setting,value
"COc1ccc(C=C(C#N)c2cccs2)cc1O [Compound 1c, 2-[1-Cyano-2-(3-hydroxy-4-methoxyphenyl)-(E)-ethenyl)]-thiophene]",LDH release / unspecific cytotoxicity (in words),HepG2 cells,do not exert considerable unspecific cytotoxicity
same,inhibition of EGFR (in words),EGFR,no relevant inhibition
same,inhibition at 10 µM,Pim-1,71%
same,inhibition at 10 µM,Pim-2,60%
same,inhibition at 10 µM,c-KIT,61%
same,inhibition of FGFR (in words),FGFR,no relevant inhibition
same,inhibition of PDGFR (in words),PDGFR,no relevant inhibition
